According to patent publication US12162888B2, “Carboxamides as ubiquitin-specific protease inhibitors” (Valo Early Discovery, Inc., priority 2018, dated 2024):

Target: T1, USP25 (USP25-His6, Boston Biochem E-546) (Homo sapiens, UniProt Q9UHP3)
T1 construct: His6 (C); purchased Boston Biochem E-546
T1 sequence (Q9UHP3 1-1055): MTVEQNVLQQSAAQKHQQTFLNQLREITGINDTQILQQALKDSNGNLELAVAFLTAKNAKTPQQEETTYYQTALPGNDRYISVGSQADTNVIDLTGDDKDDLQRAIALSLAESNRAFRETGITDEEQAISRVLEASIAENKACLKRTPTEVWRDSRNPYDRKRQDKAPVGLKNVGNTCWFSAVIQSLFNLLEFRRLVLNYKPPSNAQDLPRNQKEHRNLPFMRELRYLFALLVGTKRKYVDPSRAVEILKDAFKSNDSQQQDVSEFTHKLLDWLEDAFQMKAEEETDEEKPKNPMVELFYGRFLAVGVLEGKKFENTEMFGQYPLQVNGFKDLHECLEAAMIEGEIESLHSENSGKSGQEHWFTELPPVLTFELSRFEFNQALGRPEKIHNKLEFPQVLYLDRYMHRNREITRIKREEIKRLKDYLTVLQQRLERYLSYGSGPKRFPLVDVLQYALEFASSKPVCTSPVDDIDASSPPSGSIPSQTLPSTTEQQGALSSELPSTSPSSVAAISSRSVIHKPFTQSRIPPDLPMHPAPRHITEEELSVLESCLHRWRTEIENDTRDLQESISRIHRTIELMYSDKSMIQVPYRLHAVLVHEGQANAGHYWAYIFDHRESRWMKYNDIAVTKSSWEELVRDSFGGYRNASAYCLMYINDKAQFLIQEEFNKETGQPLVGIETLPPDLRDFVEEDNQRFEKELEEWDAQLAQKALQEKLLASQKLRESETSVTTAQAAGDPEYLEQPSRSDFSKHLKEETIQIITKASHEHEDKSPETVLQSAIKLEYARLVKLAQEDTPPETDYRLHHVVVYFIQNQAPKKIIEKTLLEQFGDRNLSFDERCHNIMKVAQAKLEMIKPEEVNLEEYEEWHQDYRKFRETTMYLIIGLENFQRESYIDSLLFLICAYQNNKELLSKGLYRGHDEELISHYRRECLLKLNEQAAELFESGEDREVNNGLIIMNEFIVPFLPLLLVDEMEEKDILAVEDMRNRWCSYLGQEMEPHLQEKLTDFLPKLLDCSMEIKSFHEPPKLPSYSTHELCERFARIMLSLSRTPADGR
Assay: Ubiquitin-Rhodamine 110 Assay for USP25 Activity, Example A-3
Type: biochemical
Settings: Ubiquitin-Rhodamine 110 assay, Example A-3; read-out: USP25 A-3 IC50 range
Method: Example A-3: Biochemical Assay: Ubiquitin-Rhodamine 110 Assay for USP25 Activity
The assay was performed in a final volume of 9 μL in assay buffer containing 20 mM Tris-HCl (pH 8.0, (1M Tris-HCl, pH 8.0 solution; Corning 46-031-CM)), 3 mM BME (2-Mercaptoethanol; Sigma 63689-25ML-F), 0.03% BGG (0.22 μM filtered, Sigma, G7516-25G), and 0.01% Triton X-100 (Sigma, T9284-10L). Nanoliter quantities of 10-point, 3-fold serial dilution in DMSO was pre-dispensed into 1536 assay plates (Corning, #3724BC) for a final test concentration of 25 μM to 1.3 nM, top to lowest dose, respectively. Enzyme USP25, construct USP25-His6, (Boston Biochem E-546). Concentration and incubation times were optimized for the maximal signal-to-background while maintaining initial velocity conditions at a fixed substrate concentration. The final concentration of the enzyme in the assay was […]. Final substrate (Ub-Rh110; Ubiquitin-Rhodamine 110, R&D Systems #U-555) concentration was 25 nM with [Ub-Rh110]<<Km. 3 μL of 2× enzyme was added to assay plates (pre-stamped with compound) preincubated with […] for 30 minutes and then 3 μL of 2× Ub-Rh110 was added to assay plates. Plates were incubated for 45 minutes at room temperature before addition of 3 μL of stop solution (final concentration of 10 mM citric acid (Sigma, 251275-500G)). Fluorescence was read on the Envision (Excitation at 485 nm and Emission at 535 nm; Perkin Elmer) or on the PheraSTAR (Excitation at 485 nm and Emission at 535 nm; BMG Labtech).
For assay formats Example A-1(a), A-1(b), and A-2, data were reported as percent inhibition compared with control wells based on the following equation: % inh=1−((FLU−AveLow)/(AveHigh−AveLow)) where FLU=measured Fluorescence, AveLow=average Fluorescence of no enzyme control (n=16), and AveHighh=average Fluorescence of DMSO control (n=16). IC50 values were determined by curve fitting of the standard 4 parameter logistic fitting algorithm included in the Activity Base software package: IDBS XE Designer Model 205. Data is fitted using the Levenburg Marquardt algorithm.

Structure (SMILES)	IC50 [nM]
Cc1ccc2c(N)c(C(=O)N[C@H]3CCc4nc(N5CC[C@]6(C5)OCC[C@H]6N)ccc4C3)sc2n1 [Example 408, 3-amino-N-[(6S)-2-[(4R,5R)-4-amino-1-oxa-7-azaspiro[4.4]nonan-7-yl]-5,6,7,8-tetrahydroquinolin-6-yl]-6-methylthieno[2,3-b]pyridine-2-carboxamide]	> 2000
COC[C@H]1[C@H](N)CCN1c1ccc2c(n1)CC[C@H](NC(=O)c1sc3nc(C)ccc3c1N)C2 [Example 419, 3-amino-N-[(6S)-2-[(2R,3R)-3-amino-2-(methoxymethyl)pyrrolidin-1-yl]-5,6,7,8-tetrahydroquinolin-6-yl]-6-methylthieno[2,3-b]pyridine-2-carboxamide]	> 2000
COC[C@@H]1[C@@H](N)CCN1c1ccc2c(n1)CC[C@H](NC(=O)c1sc3nc(C)ccc3c1N)C2 [Example 420, 3-amino-N-[(6S)-2-[(2S,3S)-3-amino-2-(methoxymethyl)pyrrolidin-1-yl]-5,6,7,8-tetrahydroquinolin-6-yl]-6-methylthieno[2,3-b]pyridine-2-carboxamide]	50 to 200
CCn1ccc2cc(C(=O)N[C@H]3CCc4nc(N5C[C@H](N)[C@@H](C(F)(F)F)C5)ccc4C3)cnc21 [Example 421, N-[(6S)-2-[(3R,4S)-3-amino-4-(trifluoromethyl)pyrrolidin-1-yl]-5,6,7,8-tetrahydroquinolin-6-yl]-1-ethyl-1H-pyrrolo[2,3-b]pyridine-5-carboxamide]	200 to 2000
CCn1ccc2cc(C(=O)N[C@H]3CCc4nc(N5C[C@@H](N)[C@H](C(F)(F)F)C5)ccc4C3)cnc21 [Example 422, N-[(6S)-2-[(3S,4R)-3-amino-4-(trifluoromethyl)pyrrolidin-1-yl]-5,6,7,8-tetrahydroquinolin-6-yl]-1-ethyl-1H-pyrrolo[2,3-b]pyridine-5-carboxamide]	> 2000
CO[C@]1(C)CN(c2ccc3c(n2)CC[C@H](NC(=O)c2sc4nc(C)ccc4c2N)C3)C[C@@H]1N [Example 427, 3-amino-N-[(6S)-2-[(3R,4S)-4-amino-3-methoxy-3-methylpyrrolidin-1-yl]-5,6,7,8-tetrahydroquinolin-6-yl]-6-methylthieno[2,3-b]pyridine-2-carboxamide]	200 to 2000
CO[C@@]1(C)CN(c2ccc3c(n2)CC[C@H](NC(=O)c2sc4nc(C)ccc4c2N)C3)C[C@H]1N [Example 428, 3-amino-N-[(6S)-2-[(3S,4R)-4-amino-3-methoxy-3-methylpyrrolidin-1-yl]-5,6,7,8-tetrahydroquinolin-6-yl]-6-methylthieno[2,3-b]pyridine-2-carboxamide]	200 to 2000
Cc1ccc2c(N)c(C(=O)N[C@H]3CCc4nc(N5C6CC(N)CC5CS(=O)(=O)C6)ccc4C3)sc2n1 (stereo partly drawn) [Example 429, 3-amino-N-[(6S)-2-{7-amino-3,3-dioxo-3λ-thia-9-azabicyclo[3.3.1]nonan-9-yl}-5,6,7,8-tetrahydroquinolin-6-yl]-6-methylthieno[2,3-b]pyridine-2-carboxamide]	50 to 200
Cc1ccc2c(N)c(C(=O)N[C@H]3CCc4nc(N5C[C@H](N)[C@]6(CCOC6)C5)ccc4C3)sc2n1 [Example 430, 3-amino-N-[(6S)-2-[(5S,9R)-9-amino-2-oxa-7-azaspiro[4.4]nonan-7-yl]-5,6,7,8-tetrahydroquinolin-6-yl]-6-methylthieno[2,3-b]pyridine-2-carboxamide]	> 2000
CO[C@@]12CCN[C@H]1CN(c1ccc3c(n1)CC[C@H](NC(=O)c1sc4nc(C)ccc4c1N)C3)C2 [Example 434, N-[(6S)-2-[(3aR,6aS)-3a-methoxy-octahydropyrrolo[2,3-c]pyrrol-5-yl]-5,6,7,8-tetrahydroquinolin-6-yl]-3-amino-6-methylthieno[2,3-b]pyridine-2-carboxamide]	> 2000
CO[C@]12CCN[C@@H]1CN(c1ccc3c(n1)CC[C@H](NC(=O)c1sc4nc(C)ccc4c1N)C3)C2 [Example 435, N-[(6S)-2-[(3aS,6aR)-3a-methoxy-octahydropyrrolo[2,3-c]pyrrol-5-yl]-5,6,7,8-tetrahydroquinolin-6-yl]-3-amino-6-methylthieno[2,3-b]pyridine-2-carboxamide]	200 to 2000
